Results published in patent US20120135089A1, “E3 LIGASE INHIBITORS” (priority 2009, published 2012).
Counter-ions that a name gives are not always drawn. Non-standard residues stand in square brackets, D forms with d. Residues, ends and D or L forms follow the SMILES beside them. *: point of attachment. Nle = CCCC[C@H](N)C(=O)O; Cbz = O=C(OCc1ccccc1)*

Tests used:
MdmX = assay: etoposide-induced MdmX degradation in MCF7 cells (Western blot); format: cell-based, human; details: etoposide 30 μg/ml, 16 hours
Procedure: (§1) Cells were plated in 384-well format and treated with MG132 (2 hours) or cycloheximide (30 minutes). Steadylite luminescence buffer (PerkinElmer) was added and the relative luminescence levels determined on a Victor3 Plate Reader. Each graph represents the median of 5 replicates normalized to a no treatment control, and one standard deviation is shown. […] The graphs and EC50 values were determined using Graphpad PRISM®. […] U2OS, RKO, and HCT116 cells (p53 wild-type) were incubated with 5 μg/ml (14 μM) of MEL23, 5 μg/ml (15 μM) of MEL24, or 10 μM of MG132 for 6 hours. Cells were lysed and analyzed by Western blotting using anti-Mdm2, anti-p53, and anti-eIF4E antibodies. NT indicates a no treatment control. […] MCF7 cells (p53 wild-type) were incubated with 30 μg/ml (51 μM) etoposide alone or in combination with 50 μM AlIn or 5 μg/ml (14 μM) MEL23, or 5 μg/ml (15 μM) MEL24 for 16 hours. Cells were lysed and analyzed by Western blotting using anti-MDMX and anti-actin antibodies.
(§2) Cells were seeded and treated with the indicated compound(s). Cells were lysed after each time point in a buffer of 50 mM TrisHCl pH 7.5, 200 mM NaCl, 0.5% NP-40, and 1 complete mini EDTA-free protease inhibitor cocktail tablet per 10 mL of buffer (Roche, Cat. No. 8360170). Protein content was quantified using a Biorad protein assay reagent (Bio-Rad Laboratories, Hercules, Calif., Cat. No. 500-0006). SDS sample buffer was added to the samples, and the mixture was boiled for 5 minutes. Equal amounts of protein were resolved on a 1D SDS-PAGE gel. Following separation proteins were transferred to nitrocellulose membrane, blocked with 5% milk, and then incubated with primary antibody overnight at 4° C. The membrane was incubated with secondary-HRP antibody for 45 minutes at room temperature and developed with SuperSignal West Pico Substrate (Pierce, Rockford, Ill., Cat. No. 34080).

p53 ubiquitination = assay: cell-based p53 ubiquitination assay in H1299 cells; parameters: species or system human; details: H1299 transfected with p53, Mdm2, ubiquitin; 10 μg/ml pre-treatment, 10 μM MG132
Procedure: To obtain the results shown in FIG. 4A, Mdm2-luciferase cells were transfected with ubiquitin-HA and treated 8 hours later with 10 μg/ml (28 μM) MEL23, 10 μg/ml (31 μM) MEL24, or a DMSO control. After 16 hours, cells were additionally treated with 10 μM MG132 or a DMSO control. After 3 hours, cells were lysed and immunoprecipitated for 3 hours with anti-HA affinity matrix. Total lysates and immunoprecipitated samples were analyzed by Western blotting using anti-Mdm2 antibody. NT indicates a no treatment control. […] After 8 hours, cells were treated with 10 μg/ml (28 μM) MEL23, 10 μg/ml (31 μM) MEL24, or a DMSO control. After 16 hours, cells were additionally treated with 10 μM MG132 or a DMSO control. After 3 hours cells were lysed and analyzed by Western blotting using anti-p53 antibody. “p53-Ub” indicates the slower migrating species of the protein that are the ubiquitin-conjugated forms.
To test the effects of the MEL compounds on p53 ubiquitination, H1299 cells were transfected with plasmids expressing p53, Mdm2, and ubiquitin and pre-treated with 10 μg/ml MEL23 or MEL24, followed by treatment with 10 μM MG132. Ubiquitination of p53 was analyzed by Western blotting. […] In fact, the half-life of p53 increased from an hour to greater than 6 hours with 5 μg/ml MEL23 treatment (FIG. 32). Thus, treatment with MEL23 and MEL24 inhibits ubiquitin conjugation to Mdm2 and p53.

Mdm2 and p53 levels = assay: Western blot of Mdm2 and p53 protein levels in cell lines; format: cell-based, human; details: 6 hours; for p53 levels in RKO and RKO-E6 cells: isogenic RKO and RKO-E6 (HPV-E6) cells
Procedure: as §1
(§3) H1229 cells were transfected with Mdm2-Flag or remained untransfected. Cells were treated with 5 μg/ml (14 μM) MEL23, 5 μg/ml (15 μM) MEL24, 10 μM MG132, or 1 μg/ml of doxorubicin for 6 hours. Cells were lysed and analyzed by Western blotting using anti-Mdm2 and anti-actin antibodies. The lower band indicated with a star seen with the Mdm2 antibody is a non-specific band. NT indicates a no treatment control. […] RKO and RK0-E6 cells were treated with 5 μg/ml (14 μM) MEL23, 5 μg/ml (15 μM) MEL24, 10 μM MG132, 0.5 μg/ml doxorubicin, 0.5 μg/ml camptothecin or 25 μg/ml Etoposide for 6 hours. Cells were lysed and analyzed by Western blotting using anti-Mdm2, anti-p53, and anti-actin antibodies. The lower band indicated with a star seen with the anti-Mdm2 antibody is a non-specific band. […] RKO cells were treated with 5 μg/ml (14 μM) MEL23, 5 μg/ml (15 μM) MEL24, 10 μM MG132 or 2 μg/ml doxorubicin for 6 hours. Cells were lysed and analyzed by Western blotting using anti-Mdm2, anti-p53, anti-phospho-Ser15 p53, and anti-eiF4E antibodies.
as §2
Cells were lysed and analyzed by Western blotting using anti-Mdm2, anti-p53, and anti-actin antibodies. The lower band seen with the Mdm2 antibody is a non-specific band. NT indicates no treatment control.
Referring now to FIG. 28e, endogenous Mdm2 and p53 protein levels with MEL17 treatment are shown. Briefly, U2OS, RKO, and HCT116 cells (p53 wild-type) were incubated with 5 μg/ml of MEL17 or 10 μM of MG132 for 6 hours. Cells were lysed and analyzed by Western blotting using anti-Mdm2, anti-p53, and anti-actin antibodies. The lower band seen with the Mdm2 antibody is a non-specific band.

[1] = target: T1, Mdm2-luciferase fusion protein (Homo sapiens, UniProt Q00987); assay: cell-based Mdm2 auto-ubiquitination luminescence assay, Mdm2-luciferase cell line; details: 384-well format
T1 construct: Using full-length Mdm2 allowed for the presence of all domains of Mdm2; expressed in transfected cells
T1 sequence (Q00987 whole entry, the tested form may be a part): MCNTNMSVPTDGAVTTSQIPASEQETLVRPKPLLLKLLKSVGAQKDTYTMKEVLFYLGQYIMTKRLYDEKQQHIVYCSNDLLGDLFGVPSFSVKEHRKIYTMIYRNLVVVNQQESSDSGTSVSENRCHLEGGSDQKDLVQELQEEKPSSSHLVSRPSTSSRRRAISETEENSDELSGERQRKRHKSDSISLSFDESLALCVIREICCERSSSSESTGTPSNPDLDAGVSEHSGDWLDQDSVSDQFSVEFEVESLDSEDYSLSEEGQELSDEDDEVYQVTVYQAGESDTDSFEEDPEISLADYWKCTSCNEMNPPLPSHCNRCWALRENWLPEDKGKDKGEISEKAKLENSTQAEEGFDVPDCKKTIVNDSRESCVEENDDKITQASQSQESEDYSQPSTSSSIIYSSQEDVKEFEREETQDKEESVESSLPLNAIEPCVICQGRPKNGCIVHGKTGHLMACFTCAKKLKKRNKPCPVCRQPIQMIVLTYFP
Procedure: as §1
The Mdm2-luciferase cell line was seeded at 7,500 cells per well, in 384-well white plates (PerkinElmer, Waltham, Mass., Cat. No. 6007688), in 27 μl of media (DMEM with FBS and P/S). Assay plates with cells were incubated at 37° C. overnight to allow cells to adhere. After 24 hours, 2 μl from the ‘mother’ plate (4 mg/ml) was transferred to a ‘daughter plate’ containing 148 μl media in order to dilute the compound 1:75. Next, 3 μl from each well of the ‘daughter plates’ was added to triplicate assay plates for a final concentration of 5.33 μg/ml. Assay plates were incubated at 37° C. for 2 hours. Then the cells were lysed with the addition of 30 μl of luminescence buffer (PerkinElmer, Cat. No. 6016989), and the plates were incubated at room temperature for 30 minutes before being analyzed on a Victor3 Plate Reader (PerkinElmer) for luminescence. […] All repurchased compounds were tested in a 2-fold dilution series via the same protocol as the primary screening. All transfers were conducted using a BioMek (Beckman Coulter, Fullerton, Calif.). […] This was determined by comparing the negative control, no treatment, to the positive control, 10 μM MG132.
To identify Mdm2 E3 ligase inhibitors, a high-throughput cellular assay to measure changes in Mdm2 auto-ubiquitination and degradation was designed. This assay took advantage of the fact that Mdm2 can regulate itself in cells through ubiquitination and degradation (8). Two fusion proteins were constructed for the assay: (a) a wild-type Mdm2-luciferase fusion protein, which can auto-ubiquitinate and thereby target itself for degradation; and (b) a mutant Mdm2(C464A)-luciferase fusion protein. Both fusion proteins were constructed with luciferase N-terminal to Mdm2. The C464A mutation disrupts a metal binding site in the RING domain, thereby preventing Mdm2 E3 ligase activity (8). Small molecules that increase the luminescence of the Mdm2-luciferase fusion protein without increasing the luminescence of the Mdm2(C464A)-luciferase fusion protein are likely inhibiting Mdm2 E3 ligase activity or the proteasomal degradation of Mdm2. Alternatively, small molecules that increase the luminescence of both fusion proteins are likely affecting transcription, translation, or have a general cellular impact that is not dependent on the E3 ligase activity of Mdm2 or proteasomal degradation.

[2] = tested on: p53-Ser15 phosphorylation; assay: p53-Ser15 phosphorylation in RKO cells (Western blot); format: cell-based, human; details: 6 hours
Procedure: as §3, §2

Row | SMILES | etoposide-induced MdmX degradation (MdmX) | p53 levels in RKO and RKO-E6 cells (Mdm2 and p53 levels) | luminescence of the Mdm2-luciferase cell line [1] | further results
1 | CCCC[C@@H](C=O)NC(=O)[C@H](CC(C)C)NC(=O)[C@H](CC(C)C)NC(C)=O [ALLN, N-Acetyl-Leu-Leu-Nle-CHO, reference compound] (Ac-Leu-Leu-[Nle]-aldehyde) | degradation could be prevented | – | – | –
2 | CC(C)C[C@@H](C=O)NC(=O)[C@H](CC(C)C)NC(=O)[C@H](CC(C)C)NC(=O)OCc1ccccc1 [MG132, Z-Leu-Leu-Leu-aldehyde, reference compound] (Cbz-Leu-Leu-Leu-aldehyde) | – | increased p53 in both cell lines | increased the levels of the Mdm2-luciferase protein | p53 ubiquitination in cells (p53 ubiquitination): significant increase in p53 ubiquitination
3 | CC[C@@]1(O)C(=O)OCc2c1cc1n(c2=O)Cc2cc3ccccc3nc2-1 [camptothecin, reference compound] | – | increased p53 in both cell lines | – | –
4 | C[C@@H]1C[C@@H]([C@H](O)CC2CC(=O)NC(=O)C2)C(=O)[C@@H](C)C1 [cycloheximide, reference compound] | – | – | selectively decreased the luminescence of the Mdm2-luciferase protein | –
5 | COc1cccc2c1C(=O)c1c(O)c3c(c(O)c1C2=O)C[C@@](O)(C(=O)CO)C[C@@H]3O[C@H]1C[C@H](N)[C@H](O)[C@H](C)O1 [doxorubicin, doxorubicin hydrochloride, reference compound] | – | increased p53 in both cell lines | – | levels of endogenous and ectopically expressed Mdm2 (Mdm2 and p53 levels; p53-null H1299 cells): no effect on Mdm2 levels; phosphorylation of p53 at serine-15 [2]: strongly induced
6 | COc1cc([C@@H]2c3cc4c(cc3[C@@H](O[C@@H]3O[C@@H]5CO[C@@H](C)O[C@H]5[C@H](O)[C@H]3O)[C@H]3COC(=O)[C@H]23)OCO4)cc(OC)c1O [etoposide, reference compound] | MdmX levels decreased substantially | increased p53 in both cell lines | – | –
